Some targets named below: GAK (Homo sapiens, UniProt O14976); IKBKG (Homo sapiens, UniProt Q9Y6K9); LIMK2 (Homo sapiens, UniProt P53671); MAP3K1 (Homo sapiens, UniProt Q13233); MAP3K5 (Homo sapiens, UniProt Q99683); MAP4K1 (Homo sapiens, UniProt Q92918); MAPK3 (Homo sapiens, UniProt P27361); MAPKAPK3 (Homo sapiens, UniProt Q16644); MARK1 (Homo sapiens, UniProt Q9P0L2); MYLK (Homo sapiens, UniProt Q15746); MYLK3 (Homo sapiens, UniProt Q32MK0); NEK2 (Homo sapiens, UniProt P51955); PDIK1L (Homo sapiens, UniProt Q8N165); PDXK (Homo sapiens, UniProt O00764); PHKA2 (Homo sapiens, UniProt P46019); PRKAA1 (Homo sapiens, UniProt Q13131); SIK2 (Homo sapiens, UniProt Q9H0K1); TLK2 (Homo sapiens, UniProt Q86UE8); ULK1 (Homo sapiens, UniProt O75385); WNK4 (Homo sapiens, UniProt Q96J92); YWHAG (Homo sapiens, UniProt P61981).

Holding throughout (assay): biochemical
Holding throughout (design): species or system HEK293/K-562/placenta mixed human extract; Kinobeads chemoproteomic competition binding, quantified by TMT LC-MS/MS, dose response up to 20 uM

In article PMC6407917, “Identification of GSK3186899/DDD853651 as a Preclinical Development Candidate for the Treatment of Visceral Leishmaniasis” (Journal of Medicinal Chemistry, 2018) one finds IC50 data, which are given here for 1 compound.

By IC50 is commonly meant the concentration that gives 50% inhibition.

Chain of TLK2 (Q86UE8 whole entry): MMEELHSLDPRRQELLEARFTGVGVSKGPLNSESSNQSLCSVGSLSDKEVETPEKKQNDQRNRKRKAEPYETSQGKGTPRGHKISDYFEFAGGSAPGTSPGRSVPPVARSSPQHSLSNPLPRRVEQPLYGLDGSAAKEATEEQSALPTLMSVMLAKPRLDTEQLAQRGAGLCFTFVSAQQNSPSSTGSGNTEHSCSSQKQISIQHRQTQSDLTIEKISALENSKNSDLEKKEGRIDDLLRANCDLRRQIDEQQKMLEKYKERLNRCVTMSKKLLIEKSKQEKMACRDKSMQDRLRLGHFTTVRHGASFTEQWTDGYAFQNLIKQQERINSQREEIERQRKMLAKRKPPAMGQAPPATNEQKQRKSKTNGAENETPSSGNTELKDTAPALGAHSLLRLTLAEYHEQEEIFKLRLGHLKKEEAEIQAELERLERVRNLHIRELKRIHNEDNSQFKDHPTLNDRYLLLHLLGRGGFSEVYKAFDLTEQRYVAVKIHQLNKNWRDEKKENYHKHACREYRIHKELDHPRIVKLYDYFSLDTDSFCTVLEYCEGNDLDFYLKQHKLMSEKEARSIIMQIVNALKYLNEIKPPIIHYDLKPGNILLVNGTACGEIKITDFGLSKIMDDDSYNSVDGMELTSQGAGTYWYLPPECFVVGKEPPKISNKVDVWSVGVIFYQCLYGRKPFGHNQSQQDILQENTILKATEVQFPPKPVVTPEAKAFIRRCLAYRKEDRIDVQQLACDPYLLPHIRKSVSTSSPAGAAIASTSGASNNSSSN
Chain of MAPKAPK3 (Q16644 whole entry): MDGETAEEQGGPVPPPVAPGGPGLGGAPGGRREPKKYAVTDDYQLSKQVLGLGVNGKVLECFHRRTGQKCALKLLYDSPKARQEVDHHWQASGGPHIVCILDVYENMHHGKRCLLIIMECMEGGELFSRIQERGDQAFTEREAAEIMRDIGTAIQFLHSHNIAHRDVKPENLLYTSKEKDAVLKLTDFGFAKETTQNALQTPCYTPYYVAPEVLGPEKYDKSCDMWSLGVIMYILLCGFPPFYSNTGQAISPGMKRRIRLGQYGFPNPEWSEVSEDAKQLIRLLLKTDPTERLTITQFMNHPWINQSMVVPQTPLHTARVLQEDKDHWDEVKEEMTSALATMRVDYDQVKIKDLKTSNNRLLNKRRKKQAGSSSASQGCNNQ
Chain of MAP3K1 (Q13233 whole entry): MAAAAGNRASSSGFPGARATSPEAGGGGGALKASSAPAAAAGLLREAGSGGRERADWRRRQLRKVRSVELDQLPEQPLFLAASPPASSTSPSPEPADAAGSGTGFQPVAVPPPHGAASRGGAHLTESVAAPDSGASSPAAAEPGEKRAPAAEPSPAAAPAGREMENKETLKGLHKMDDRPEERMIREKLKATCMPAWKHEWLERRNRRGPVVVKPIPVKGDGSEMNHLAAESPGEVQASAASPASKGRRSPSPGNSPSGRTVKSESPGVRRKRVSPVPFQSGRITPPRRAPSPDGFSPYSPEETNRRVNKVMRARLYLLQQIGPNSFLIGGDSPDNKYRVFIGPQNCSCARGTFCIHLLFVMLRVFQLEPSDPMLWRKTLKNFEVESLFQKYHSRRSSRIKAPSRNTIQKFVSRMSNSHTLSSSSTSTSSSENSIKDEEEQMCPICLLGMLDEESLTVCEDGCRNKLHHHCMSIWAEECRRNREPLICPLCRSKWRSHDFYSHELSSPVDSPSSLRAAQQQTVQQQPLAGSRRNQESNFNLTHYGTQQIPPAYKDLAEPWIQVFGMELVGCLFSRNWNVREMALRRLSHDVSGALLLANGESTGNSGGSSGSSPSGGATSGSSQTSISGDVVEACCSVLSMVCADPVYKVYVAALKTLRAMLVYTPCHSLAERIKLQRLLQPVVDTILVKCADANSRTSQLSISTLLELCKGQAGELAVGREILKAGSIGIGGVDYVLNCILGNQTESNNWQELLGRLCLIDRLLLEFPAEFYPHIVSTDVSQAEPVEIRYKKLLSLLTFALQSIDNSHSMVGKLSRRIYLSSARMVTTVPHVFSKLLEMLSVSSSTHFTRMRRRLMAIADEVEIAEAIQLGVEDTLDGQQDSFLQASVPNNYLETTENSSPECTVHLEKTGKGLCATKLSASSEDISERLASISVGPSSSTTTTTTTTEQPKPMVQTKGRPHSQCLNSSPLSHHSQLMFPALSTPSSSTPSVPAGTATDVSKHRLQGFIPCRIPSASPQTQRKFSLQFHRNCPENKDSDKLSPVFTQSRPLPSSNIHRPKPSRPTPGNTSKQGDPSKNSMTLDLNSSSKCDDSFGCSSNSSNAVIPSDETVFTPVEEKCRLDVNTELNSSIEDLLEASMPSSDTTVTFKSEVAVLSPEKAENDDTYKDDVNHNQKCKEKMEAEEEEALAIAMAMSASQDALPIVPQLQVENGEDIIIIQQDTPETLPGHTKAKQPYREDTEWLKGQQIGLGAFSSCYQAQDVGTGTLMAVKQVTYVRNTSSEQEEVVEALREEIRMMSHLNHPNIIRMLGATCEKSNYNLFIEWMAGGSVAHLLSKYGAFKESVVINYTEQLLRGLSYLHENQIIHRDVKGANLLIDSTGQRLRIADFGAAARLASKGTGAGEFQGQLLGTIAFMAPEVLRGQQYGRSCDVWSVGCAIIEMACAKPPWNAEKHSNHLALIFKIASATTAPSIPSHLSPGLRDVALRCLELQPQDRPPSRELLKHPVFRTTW
Chain of LIMK2 (P53671 whole entry): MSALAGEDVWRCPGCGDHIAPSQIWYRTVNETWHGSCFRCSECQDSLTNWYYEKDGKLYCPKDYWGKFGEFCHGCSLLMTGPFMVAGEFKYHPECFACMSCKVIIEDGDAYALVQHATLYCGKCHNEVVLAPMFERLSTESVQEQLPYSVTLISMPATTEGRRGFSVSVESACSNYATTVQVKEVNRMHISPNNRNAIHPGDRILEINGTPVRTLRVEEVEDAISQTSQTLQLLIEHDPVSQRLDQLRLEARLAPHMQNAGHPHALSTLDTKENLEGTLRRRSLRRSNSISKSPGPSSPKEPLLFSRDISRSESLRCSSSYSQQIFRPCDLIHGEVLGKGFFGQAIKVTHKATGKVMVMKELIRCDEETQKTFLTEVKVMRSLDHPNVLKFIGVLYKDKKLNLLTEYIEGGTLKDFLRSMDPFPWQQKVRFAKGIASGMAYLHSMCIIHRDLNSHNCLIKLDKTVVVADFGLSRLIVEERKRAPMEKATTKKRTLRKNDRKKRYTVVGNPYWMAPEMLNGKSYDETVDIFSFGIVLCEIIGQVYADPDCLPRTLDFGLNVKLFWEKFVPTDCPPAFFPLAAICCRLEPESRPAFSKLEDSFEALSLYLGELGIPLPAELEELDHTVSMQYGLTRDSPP
Chain of IKBKG (Q9Y6K9 whole entry): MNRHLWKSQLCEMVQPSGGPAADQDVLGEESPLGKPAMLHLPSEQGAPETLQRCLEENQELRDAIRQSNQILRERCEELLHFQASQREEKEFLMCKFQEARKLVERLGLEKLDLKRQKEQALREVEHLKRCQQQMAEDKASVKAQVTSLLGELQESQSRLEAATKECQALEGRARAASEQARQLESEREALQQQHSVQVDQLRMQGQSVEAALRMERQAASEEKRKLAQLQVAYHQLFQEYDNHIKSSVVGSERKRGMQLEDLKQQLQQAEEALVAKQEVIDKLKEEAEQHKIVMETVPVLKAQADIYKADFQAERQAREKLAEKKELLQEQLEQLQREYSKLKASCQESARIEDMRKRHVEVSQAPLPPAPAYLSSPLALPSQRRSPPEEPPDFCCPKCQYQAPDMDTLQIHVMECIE
Chain of MYLK3 (Q32MK0 whole entry): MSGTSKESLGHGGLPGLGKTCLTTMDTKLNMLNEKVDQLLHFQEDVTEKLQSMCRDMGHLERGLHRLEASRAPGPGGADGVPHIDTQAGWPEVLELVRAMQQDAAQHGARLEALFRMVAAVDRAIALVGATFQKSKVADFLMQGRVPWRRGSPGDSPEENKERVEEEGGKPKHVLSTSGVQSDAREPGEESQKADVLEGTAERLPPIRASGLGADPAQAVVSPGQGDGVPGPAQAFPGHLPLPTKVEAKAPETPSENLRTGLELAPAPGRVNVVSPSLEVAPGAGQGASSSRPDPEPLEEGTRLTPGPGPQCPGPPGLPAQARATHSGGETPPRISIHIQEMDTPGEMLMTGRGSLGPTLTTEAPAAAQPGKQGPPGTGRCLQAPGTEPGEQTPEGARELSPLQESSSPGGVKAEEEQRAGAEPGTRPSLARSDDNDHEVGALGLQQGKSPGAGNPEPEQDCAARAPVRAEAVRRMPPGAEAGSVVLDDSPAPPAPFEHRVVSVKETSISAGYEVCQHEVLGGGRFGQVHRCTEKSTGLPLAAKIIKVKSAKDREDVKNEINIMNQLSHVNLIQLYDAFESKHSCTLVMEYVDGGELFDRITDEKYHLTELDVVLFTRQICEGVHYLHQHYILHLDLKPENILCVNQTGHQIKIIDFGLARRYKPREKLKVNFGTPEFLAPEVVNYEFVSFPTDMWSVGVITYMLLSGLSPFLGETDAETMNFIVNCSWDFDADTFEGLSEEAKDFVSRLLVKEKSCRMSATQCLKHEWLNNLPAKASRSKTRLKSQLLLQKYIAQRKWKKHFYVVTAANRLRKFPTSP
Chain of PDXK (O00764 whole entry): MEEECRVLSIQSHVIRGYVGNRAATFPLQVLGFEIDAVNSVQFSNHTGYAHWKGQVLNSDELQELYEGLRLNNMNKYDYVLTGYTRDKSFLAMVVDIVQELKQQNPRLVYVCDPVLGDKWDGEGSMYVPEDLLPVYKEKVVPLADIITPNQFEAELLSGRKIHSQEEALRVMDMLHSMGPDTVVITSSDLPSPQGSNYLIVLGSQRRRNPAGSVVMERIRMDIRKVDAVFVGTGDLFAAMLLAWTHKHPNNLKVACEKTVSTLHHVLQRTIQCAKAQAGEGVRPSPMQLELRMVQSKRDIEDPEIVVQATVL

Take `COc1ccccc1-c1n[nH]c2nc(N[C@H]3CC[C@H](NS(=O)(=O)CCC(F)(F)F)CC3)nc(OC)c12` [compound 31, 3,3,3-Trifluoro-N-(trans-4-((4-methoxy-3-(2-methoxyphenyl)-1H-pyrazolo[3,4-d]pyrimidin-6-yl)amino)cyclohexyl)propane-1-sulfonamide]: the IC50 on GAK is 9.9 µM; on IKBKG, no less than 20 µM; on LIMK2 it was no less than 20 µM; on MAP3K1 it was no less than 20 µM; at MAP3K5 it was no less than 20 µM; at MAP4K1, no less than 20 µM. In addition, the IC50 at MAPK3, on MAPKAPK3, on MARK1, at MYLK, at MYLK3 and at NEK2 was no less than 20 µM each time. The IC50 on PDIK1L, at PDXK, on PHKA2, at PRKAA1, on SIK2 and at TLK2 was no less than 20 µM each time. Besides, the IC50 on ULK1, on WNK4 and on YWHAG was no less than 20 µM throughout.
